Measurements from patent US20240116912A1, “COMPOUNDS AND METHODS FOR MODULATING FXR” (Terns Pharmaceuticals, Inc., priority 2020, published 2024).
Values joined by “and” are separate entries in the source; they are usually repeats but may differ in a detail not shown here. Equal entries are not always repeated.

Legend:
[1] = target: full length human FXR protein (Homo sapiens (Human), UniProt Q96RI1); experiment: FXR cellular assay (FXR-SRCP β-gal enzyme fragment complementation in CHO-K1 cells, chemiluminescence); type: cell-based; details: CHO-K1 cells with SRCP-EA and ProLink-labeled FXR, 0-10 micromolar compound, 37° C. for 6h, read-out: EC50 FXR-cell Luminescence/
Source text: A cell based FXR assay was used to detect protein-protein interactions between an activated (ligand-bound), full length human FXR protein and a nuclear fusion protein containing a Steroid Receptor Coactivator Peptide (SCRP) domain. In this approach, two weakly complementing fragments of the 3-gal enzyme were expressed within stably transfected Chinese Hamster Ovary (CHO-K1) cells. The complementing fragments of the 3-gal enzyme (ProLink, PK; and Enzyme Acceptor, EA) were translationally fused to the C-terminus of a full-length FXR and to the SRCP, respectively. Complementation was driven by the protein-protein interaction between SRCP-EA and a ProLink-labeled FXR. Upon FXR-SRCP binding, the two fragments of 3-gal complement, forming a functional enzyme capable of hydrolyzing a substrate molecule and generating a chemiluminescent signal.
CHO-K1 cells containing SRCP-EA and ProLink-labeled FXR were plated in 384-well microplates and incubated at 37° C. overnight. A positive control FXR agonist, GW4064 (0-10 micromolar), or test compounds (0-10 micromolar) were added to plated cells and incubated at 37° C. for 6h (final DMSO vehicle concentration was 1%). The assay signal was generated by addition of 50% (v/v) detection reagent (19:5:1, cell assay buffer: substrate reagent 1: substrate reagent 2, DiscoverX) followed by incubation for 1h at ambient room temperature. Microplates were analyzed using an Envision reader (PerkinElmer Life and Analytical Sciences, Signal=chemiluminescence).

[2] = target: ligand binding domain (LBD) of recombinant human FXR (Homo sapiens (Human), UniProt Q96RI1); experiment: FXR cell free coactivator (SRC-1) recruitment assay, TR-FRET; details: FXR LBD (amino acids 244-476) with labeled SRC-1 domain, 25° C. for 60 minutes, activity relative to CDCA maximum; read-out: EC50 FXR- Biochemical TR-FRET/μM
Experimental: A cell free coactivator recruitment assay was developed for FXR, to measure the functional potency of novel FXR compounds. In this assay, novel FXR compounds were bound to the ligand binding domain (LBD) of recombinant human FXR. The ability of this liganded homodimeric complex to recruit the co-activator protein steroid receptor coactivator 1 (SRC-1) was measured using Time-Resolved Fluorescence Resonance Energy Transfer (TR-FRET).
The LBD of human FXR (amino acids 244-476) was cloned into an expression vector for protein expression in SF9 insect cells. Purified FXR LBD was incubated in TR-FRET coregulator buffer G (Eurofins) with test compounds (0-10 micromolar) and a labeled nuclear receptor interaction domain of SRC-1 at 25° C. for 60 minutes (final DMSO vehicle concentration was 1.2%). Assays were analyzed using an Envision TR-FRET reader (PerkinElmer Life and Analytical Sciences). Compound activity at each concentration was defined as a percentage of the maximal activity of the natural FXR ligand agonist chenodeoxycholic acid (CDCA) generating a dose response curve.

Sequence of full length human FXR protein (Q96RI1 whole entry, the tested form may be a part): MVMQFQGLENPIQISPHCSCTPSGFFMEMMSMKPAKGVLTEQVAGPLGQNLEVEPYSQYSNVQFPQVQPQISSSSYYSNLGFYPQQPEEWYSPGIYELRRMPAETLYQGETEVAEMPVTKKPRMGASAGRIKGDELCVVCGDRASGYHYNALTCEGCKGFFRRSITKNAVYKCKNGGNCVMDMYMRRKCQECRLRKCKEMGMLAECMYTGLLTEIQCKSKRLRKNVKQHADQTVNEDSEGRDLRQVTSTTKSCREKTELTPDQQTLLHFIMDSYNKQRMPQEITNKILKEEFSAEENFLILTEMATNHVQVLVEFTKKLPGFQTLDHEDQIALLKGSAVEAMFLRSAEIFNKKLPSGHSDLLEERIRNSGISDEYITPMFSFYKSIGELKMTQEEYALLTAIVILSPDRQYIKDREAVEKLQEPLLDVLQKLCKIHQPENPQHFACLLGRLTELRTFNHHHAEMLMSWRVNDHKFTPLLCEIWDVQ
Sequence of ligand binding domain (LBD) of recombinant human FXR (Q96RI1 254-486): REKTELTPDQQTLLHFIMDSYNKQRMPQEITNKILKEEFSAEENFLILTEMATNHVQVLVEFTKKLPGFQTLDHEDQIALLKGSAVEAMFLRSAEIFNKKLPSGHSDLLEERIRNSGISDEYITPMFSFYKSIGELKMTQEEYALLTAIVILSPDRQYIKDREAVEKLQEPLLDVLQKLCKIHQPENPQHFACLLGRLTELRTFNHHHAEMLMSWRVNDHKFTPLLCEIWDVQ
Sequence of ligand binding domain (LBD) of recombinant human FXR (Q15788 whole entry partner, the tested form may be a part): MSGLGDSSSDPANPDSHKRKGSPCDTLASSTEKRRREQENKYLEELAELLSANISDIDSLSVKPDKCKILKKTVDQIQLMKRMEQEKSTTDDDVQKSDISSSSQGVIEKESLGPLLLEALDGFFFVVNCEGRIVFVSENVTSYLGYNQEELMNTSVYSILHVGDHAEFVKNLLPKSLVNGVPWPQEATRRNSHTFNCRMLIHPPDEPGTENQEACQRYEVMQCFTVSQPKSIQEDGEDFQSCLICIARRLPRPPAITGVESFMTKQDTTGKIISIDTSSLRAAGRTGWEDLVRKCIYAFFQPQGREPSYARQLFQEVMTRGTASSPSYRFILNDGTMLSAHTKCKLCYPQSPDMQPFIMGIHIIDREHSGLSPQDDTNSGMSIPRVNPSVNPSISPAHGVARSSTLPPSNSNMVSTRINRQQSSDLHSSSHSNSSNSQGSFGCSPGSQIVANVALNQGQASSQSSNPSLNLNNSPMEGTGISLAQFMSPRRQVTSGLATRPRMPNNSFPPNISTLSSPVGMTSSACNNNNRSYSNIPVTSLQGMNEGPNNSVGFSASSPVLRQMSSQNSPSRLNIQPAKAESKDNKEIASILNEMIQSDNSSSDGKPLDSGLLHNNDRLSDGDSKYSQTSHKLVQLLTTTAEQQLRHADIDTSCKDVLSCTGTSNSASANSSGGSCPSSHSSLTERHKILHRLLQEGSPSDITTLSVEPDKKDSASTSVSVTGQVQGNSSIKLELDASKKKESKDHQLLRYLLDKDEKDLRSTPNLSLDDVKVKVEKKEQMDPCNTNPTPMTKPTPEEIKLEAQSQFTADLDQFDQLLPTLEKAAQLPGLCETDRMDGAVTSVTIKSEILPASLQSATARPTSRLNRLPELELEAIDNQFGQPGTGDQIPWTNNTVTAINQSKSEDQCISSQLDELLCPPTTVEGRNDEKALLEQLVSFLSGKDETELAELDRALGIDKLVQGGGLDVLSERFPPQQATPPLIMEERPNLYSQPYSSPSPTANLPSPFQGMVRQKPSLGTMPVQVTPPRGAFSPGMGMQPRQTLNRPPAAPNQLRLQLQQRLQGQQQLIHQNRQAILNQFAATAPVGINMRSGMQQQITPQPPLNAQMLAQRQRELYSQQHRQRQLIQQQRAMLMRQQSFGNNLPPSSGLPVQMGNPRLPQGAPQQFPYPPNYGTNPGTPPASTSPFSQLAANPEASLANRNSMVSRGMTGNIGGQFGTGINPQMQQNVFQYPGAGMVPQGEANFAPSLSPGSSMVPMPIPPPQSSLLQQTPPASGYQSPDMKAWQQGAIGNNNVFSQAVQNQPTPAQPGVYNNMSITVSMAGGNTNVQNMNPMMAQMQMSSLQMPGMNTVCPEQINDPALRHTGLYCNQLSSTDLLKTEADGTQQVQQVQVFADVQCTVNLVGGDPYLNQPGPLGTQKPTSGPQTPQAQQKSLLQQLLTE

EC50 [1]	EC50 [2]	SMILES
0.195 µM	0.0126 µM	C[C@H]1CN(c2ccc(-c3noc(=O)[nH]3)cc2)CC[C@H]1OCc1c(-c2c(Cl)cccc2Cl)noc1C1CC1 [Example 32, 3-(4-((3S,4R)-4-((5-cyclopropyl-3-(2,6-dichlorophenyl)isoxazol-4-yl)methoxy)-3-methylpiperidin-1-yl)phenyl)-1,2,4-oxadiazol-5(4H)-one]
1.63 µM	0.143 µM	O=c1cc(-c2ccc(N3CCC(OCc4c(-c5ccccc5OC(F)(F)F)noc4C4CC4)CC3)cc2)o[nH]1 [Example 52, 5-(4-(4-((5-cyclopropyl-3-(2-(trifluoromethoxy)phenyl)isoxazol-4-yl)methoxy)piperidin-1-yl)phenyl)isoxazol-3(2H)-one]
0.341 µM	0.076 µM	O=c1[nH]nc(-c2ccc(N3CCC(OCc4c(-c5c(Cl)cccc5Cl)noc4C4CC4)CC3)cn2)o1 [Example 40, 5-(5-(4-((5-cyclopropyl-3-(2,6-dichlorophenyl)isoxazol-4-yl)methoxy)piperidin-1-yl)pyridin-2-yl)-1,3,4-oxadiazol-2(3H)-one]
1.47 µM	0.22 µM	O=c1cn[nH]c(=O)n1-c1ccc(N2CCC(OCc3c(-c4c(Cl)cccc4Cl)noc3C3CC3)CC2)nc1 [Example 4, 4-(6-(4-((5-cyclopropyl-3-(2,6-dichlorophenyl)isoxazol-4-yl)methoxy)piperidin-1-yl)pyridin-3-yl)-1,2,4-triazine-3,5(2H,4H)-dione]
11.7 µM	0.421 µM	O=c1[nH]c(-c2cc(N3CCC(OCc4c(-c5c(Cl)cccc5Cl)noc4C4CC4)CC3)n[nH]2)no1 [Example 58, 3-(3-(4-((5-cyclopropyl-3-(2,6-dichlorophenyl)isoxazol-4-yl)methoxy)piperidin-1-yl)-1H-pyrazol-5-yl)-1,2,4-oxadiazol-5(4H)-one]
0.195 µM	0.024 µM	O=c1cc(-c2ccc(N3CCC(OCc4c(-c5c(Cl)cccc5Cl)noc4C4CC4)CC3)cc2)o[nH]1 [Example 16, 5-(4-(4-((5-cyclopropyl-3-(2,6-dichlorophenyl)isoxazol-4-yl)methoxy)piperidin-1-yl)phenyl)isoxazol-3(2H)-one]
0.497 µM	0.0847 µM	O=c1[nH]nc(-c2ccc(N3CCC(OCc4c(-c5ccccc5OC(F)(F)F)noc4C4CC4)CC3)cc2)c(=O)[nH]1 [Example 57, 6-(4-(4-((5-cyclopropyl-3-(2-(trifluoromethoxy)phenyl)isoxazol-4-yl)methoxy)piperidin-1-yl)phenyl)-1,2,4-triazine-3,5(2H,4H)-dione]
0.064 µM	0.0085 µM	O=c1[nH]c(-c2ccc(N3CCC(OCc4c(-c5c(Cl)cccc5Cl)noc4C4CC4)CC3)cc2Cl)no1 [Example 14, 3-(2-chloro-4-(4-((5-cyclopropyl-3-(2,6-dichlorophenyl)isoxazol-4-yl)methoxy)piperidin-1-yl)phenyl)-1,2,4-oxadiazol-5(4H)-one]
0.28 µM	0.0219 µM	Cc1cc(N2CCC(OCc3c(-c4c(Cl)cccc4Cl)noc3C3CC3)CC2)ccc1-c1noc(=O)[nH]1 [Example 11, 3-(4-(4-((5-cyclopropyl-3-(2,6-dichlorophenyl)isoxazol-4-yl)methoxy)piperidin-1-yl)-2-methylphenyl)-1,2,4-oxadiazol-5(4H)-one]
0.84 µM	0.122 µM	O=c1[nH]c(-c2ccc(N3CC(OCc4c(-c5c(Cl)cccc5Cl)noc4C4CC4)C3)cc2)no1 [Example 19, 3-(4-(3-((5-cyclopropyl-3-(2,6-dichlorophenyl)isoxazol-4-yl)methoxy)azetidin-1-yl)phenyl)-1,2,4-oxadiazol-5(4H)-one]
5.51 µM	0.892 µM	O=c1[nH]c(-c2ccc(N3CCC(OCc4c(-c5c(Cl)cccc5Cl)noc4C4CC4)C3)cc2)no1 (centres unmarked) [Example 15, 3-(4-(3-((5-cyclopropyl-3-(2,6-dichlorophenyl)isoxazol-4-yl)methoxy)pyrrolidin-1-yl)phenyl)-1,2,4-oxadiazol-5(4H)-one]
1.92 µM	0.298 µM	O=c1[nH]nc(-c2ccc(N3CCC(OCc4c(-c5ccccc5OC(F)(F)F)noc4C4CC4)CC3)nc2)o1 [Example 61, 5-(6-(4-((5-cyclopropyl-3-(2-(trifluoromethoxy)phenyl)isoxazol-4-yl)methoxy)piperidin-1-yl)pyridin-3-yl)-1,3,4-oxadiazol-2(3H)-one]
2.31 µM	0.07 µM	O=c1[nH]c(-c2ccc(N3CCC(OCc4c(-c5ccccc5OC(F)(F)F)noc4C4CC4)C(F)(F)C3)nc2)no1 (centres unmarked) [Example 64, 3-(6-(4-((5-cyclopropyl-3-(2-(trifluoromethoxy)phenyl)isoxazol-4-yl)methoxy)-3,3-difluoropiperidin-1-yl)pyridin-3-yl)-1,2,4-oxadiazol-5(4H)-one]
0.244 µM	0.0584 µM	O=c1[nH]nc(-c2ccc(N3CCC(OCc4c(-c5c(Cl)cccc5Cl)noc4C4CC4)CC3)cc2F)c(=O)[nH]1 [Example 41, 6-(4-(4-((5-cyclopropyl-3-(2,6-dichlorophenyl)isoxazol-4-yl)methoxy)piperidin-1-yl)-2-fluorophenyl)-1,2,4-triazine-3,5(2H,4H)-dione]
4.73 µM	6.07 µM	O=c1cnn(-c2ccc(N3CCC(OCc4c(-c5c(Cl)cccc5Cl)noc4C4CC4)CC3)cc2)c(=O)[nH]1 [Example 17, 2-(4-(4-((5-cyclopropyl-3-(2,6-dichlorophenyl)isoxazol-4-yl)methoxy)piperidin-1-yl)phenyl)-1,2,4-triazine-3,5(2H,4H)-dione]
> 10 µM and 4.73 µM	6.35 µM and 6.07 µM	O=c1cn[nH]c(=O)n1-c1ccc(N2CCC(OCc3c(-c4c(Cl)cccc4Cl)noc3C3CC3)CC2)cc1 [Example 62, 4-(4-(4-((5-cyclopropyl-3-(2,6-dichlorophenyl)isoxazol-4-yl)methoxy)piperidin-1-yl)phenyl)-1,2,4-triazine-3,5(2H,4H)-dione]

SMILES	EC50 [1]	EC50 [2]
O=c1cc(-c2ccc(N3[C@@H]4CC[C@H]3C[C@@H](OCc3c(-c5ccccc5OC(F)(F)F)noc3C3CC3)C4)nc2)o[nH]1 [Example 69, 5-(6-((1R,3r,5S)-3-((5-cyclopropyl-3-(2-(trifluoromethoxy)phenyl)isoxazol-4-yl)methoxy)-8-azabicyclo[3.2.1]octan-8-yl)pyridin-3-yl)isoxazol-3(2H)-one]	0.0576 µM	0.0095 µM
O=c1[nH]nc(-c2ccc(N3[C@@H]4CC[C@H]3C[C@@H](OCc3c(-c5ccccc5OC(F)(F)F)noc3C3CC3)C4)cc2)c(=O)[nH]1 [Example 67, 6-(4-((1R,3r,5S)-3-((5-cyclopropyl-3-(2-(trifluoromethoxy)phenyl)isoxazol-4-yl)methoxy)-8-azabicyclo[3.2.1]octan-8-yl)phenyl)-1,2,4-triazine-3,5(2H,4H)-dione]	0.0657 µM	0.0127 µM
O=c1[nH]nc(-c2ccc(N3[C@@H]4CC[C@H]3C[C@@H](OCc3c(-c5ccccc5OC(F)(F)F)noc3C3CC3)C4)cc2)o1 [Example 65, 5-(4-((1R,3r,5S)-3-((5-cyclopropyl-3-(2-(trifluoromethoxy)phenyl)isoxazol-4-yl)methoxy)-8-azabicyclo[3.2.1]octan-8-yl)phenyl)-1,3,4-oxadiazol-2(3H)-one]	0.954 µM	0.0221 µM
